US11241440B2, “Dihydrooxadiazine compounds for treating infections and cancer” (VALORALIA I MÁS D, SL, priority 2016, dated 2022)
Read-outs that look alike come from different tables or passages of the source.

Legend:
[1] = system: HIV virus (NL4.3-Ren) and HIV virus pseudotyped with the envelope of VSV (NL4.3-VSV-Luc); experiment: Virus entry test, HIV and VSV-pseudotyped HIV in parallel; format: cell-based; conditions: NL4.3-Ren and NL4.3-VSV-Luc in parallel
[2] = system: XGF-G (gG-deficient PRV gIS8); format: cell-based, porcine pseudorabies virus (PRV)
Aspergillus flavus = experiment: EUCAST broth dilution antifungal susceptibility test (MIC); format: cell-based; conditions: 100% inhibition, 24 hours at 35° C., dilution range 64 to 0.12 mg/l
Description: (§1) Filamentous fungi and yeasts strains, from clinical origin, were supplied by Microbiology Service from The Princess Hospital, Madrid. They are detailed in Table III. Filamentous fungi and yeast cells suspensions in distilled water was prepared from a culture of 24-48 h, depending on species, in Sabouraud agar. Each suspension was adjusted to a fixed size inoculum of 1-5×10^8 CFU/ml with a spectrophotometer (Ferraro, M J National Committee for Clinical Laboratory Standards. 2000). Antifungal susceptibility tests were developed following the standardized methodology detailed by the European Committee on Antimicrobial Susceptibility Testing (EUCAST) documents 7.2 (method for the determination of broth dilution minimum inhibitory concentrations of antifungal agents for yeasts EDef 7.2) and 9.2 (Method for the determination of broth dilution minimum inhibitory concentrations of antifungal agents for conidia forming foulds). The compound was dissolved in DMSO and diluted with RPMI plates with 2% glucose to pH 7 with MOPS buffer. […] Plates were inoculated with a yeast suspension or filamentous fungal spores (1-5×10^5 cls/ml). The results were evaluated after 24 hours incubation at 35° C. and absorbance reading at 530 nm.

Scedosporium prolificans = experiment: as above; format: cell-based; conditions: 100% inhibition, 24 hours at 35° C., dilution range 64 to 0.12 mg/l
Description: as §1

Aspergillus fumigatus = experiment: as above; format: cell-based; conditions: 100% inhibition, 24 hours at 35° C., dilution range 64 to 0.12 mg/l
Description: as §1

Candida parapsilosis = experiment: as above; format: cell-based; conditions: 50% inhibition, 24 hours at 35° C., dilution range 64 to 0.12 mg/l
Description: as §1

Aspergillus terreus = experiment: as above; format: cell-based; conditions: 100% inhibition, 24 hours at 35° C., dilution range 64 to 0.12 mg/l
Description: as §1

PRV-NIA3 = format: cell-based, porcine pseudorabies virus (PRV); conditions: compound 2 μM
HSV-2, strain G = conditions: compound 2 μM
[3] = system: FTKGF (deficient in thymidine kinase protein); conditions: compound 2 μM
[4] = system: HIV virus non-recombinant wild type (NL4.3); experiment: Inhibition of non-recombinant wild type HIV; format: cell-based; conditions: Human immunodeficiency virus 1
T98G = experiment: MTT assay; format: cell-based
Description: This compound has a purple hue.
All tests are always in triplicate.
In Table VIII, quantification of the best IC50 is shown (concentration of compound that inhibits 50% of cell growth) using GraphPad Prism program.

HSV-1, strain F = conditions: compound 2 μM
S. aureus = experiment: Kirby-Bauer disk diffusion susceptibility test; format: cell-based, Staphylococcus aureus; conditions: S. aureus; 100 μg/disc; zone of inhibition
T. pulmonis = experiment: Kirby-Bauer disk diffusion susceptibility test; format: cell-based, Tsukamurella pulmonis; conditions: T. pulmonis; 100 μg/disc; zone of inhibition
[5] = system: all species tested (pathogenic bacteria); format: cell-based
SK-UT-1 = experiment: MTT assay; format: cell-based; conditions: Homo sapiens, 48 hours
[6] = system: equine herpes virus type 1 (EHV-1); experiment: Viral titer reduction; format: cell-based; conditions: 2 μM
[7] = system: recombinant herpesvirus FTKGF; experiment: Fluorescence antiviral assay in Vero cells; format: cell-based, herpes simplex 1 virus; conditions: 0.01 MOI, 48 hours
Description: In the antiviral assay a special culture plate for fluorescence assays has been used, cultivated with Vero cells (200,000 cells/ml) and infected with the recombinant herpesvirus FTKGF at 0.01 MOI (Multiplicity of infection). For the standard curve (inhibition curve pattern), increasing concentrations of a known inhibitor of HSV infection, the phosphonoacetic acid (PAA), from 0 to 200 μg/ml, were used. The compound was tested at concentrations of […] over the virus. After 48 hours, the fluorescence intensity of FTKGF (reduction in fluorescence levels) in the plate reader Synergy HT Microplate Reader was measured.

M. abscessus = experiment: Kirby-Bauer disk diffusion susceptibility test; format: cell-based, Mycobacterium abscessus; conditions: M. abscessus; 100 μg/disc; zone of inhibition
A. baumannii = experiment: Kirby-Bauer disk diffusion susceptibility test; format: cell-based, Acinetobacter baumannii; conditions: A. baumannii; 100 μg/disc; zone of inhibition
M. chelonae = experiment: Kirby-Bauer disk diffusion susceptibility test; format: cell-based; conditions: M. chelonae; 100 μg/disc; zone of inhibition
MCF7 = experiment: MTT assay; format: cell-based; conditions: Homo sapiens, 48 hours
NCI-H1299 = experiment: MTT assay; format: cell-based; conditions: Homo sapiens, 48 hours
MT-2 cells = experiment: Cellular viability, CellTiter Glo; format: cell-based
Description: (§2) All assays for assessing anti-HIV activity were taken in parallel to determine cellular viability of the culture in the presence or absence of different concentrations of the isolated molecule. It was followed exactly the same methodology as in the anti-HIV assay except with the addition of complete DMEM medium instead of supernatant viral, in the same proportion, and the detection of the viability was performed with the viability detection kit CellTiter Glo (Promega), following manufacturer instructions. Viability is directly proportional to the luciferase activity obtained. All data are expressed as percentage relative to a control with DMSO at the same concentration. Antiviral activity and toxicity curves were performed to the compound at different concentrations.

PBMCs = experiment: Cellular viability, CellTiter Glo; format: cell-based; conditions: PBMCs cells
Description: as §2

[8] = Cellular viability, CellTiter Glo; format: cell-based; conditions: human, read-out: CC50 nM (concentration of drug required to kill 50% of cells)
Description: as §2

Q: With `CCCCCC1=NN(C(=O)CCO)OC(CCCCC)C1` (stereo not shown) [Compound, 1-(4,6-dipentyl-5,6-dihydro-2H-1,2,3-oxadiazin-2-yl)-3-hydroxypropan-1-one] as the compound, how does the “inhibition of HIV and VSV-pseudotyped HIV (dependence on virus entry)” value [1] read?
A: The value was “inhibited both viruses with the same potency”.

Q: What about the “reduction of the titer” value [2] of the same compound?
A: The value was 0.7 logarithms.

Q: What about the “MIC (minimum inhibitory concentration)” value (Aspergillus flavus) of the same compound?
A: Its value is 1.

Q: What about the “MIC (minimum inhibitory concentration)” value (Scedosporium prolificans) of the same compound?
A: Its value is 0.5.

Q: What about the “MIC (minimum inhibitory concentration)” value (Aspergillus fumigatus) of the same compound?
A: Its value is 0.5.

Q: And the “MIC (minimum inhibitory concentration)” value (Candida parapsilosis)?
A: The value was 0.5.

Q: And the “MIC (minimum inhibitory concentration)” value (Aspergillus terreus)?
A: Its value is 0.25.

Q: And the “reduction of the titer” value (PRV-NIA3)?
A: The value was 0.5 logarithms.

Q: And the “reduction of the titer” value (HSV-2, strain G)?
A: The value was 3 logarithms.

Q: What about the “reduction of the titer” value [3] of the same compound?
A: Its value is 2.5 logarithms.

Q: And the IC50 [4]?
A: Its IC50 is 333 nM.

Q: And the “concentration at which inhibition is obtained” value (T98G)?
A: The value was 50 nM.

Q: And the “optimal concentration of inhibition” value (T98G)?
A: The value was 100 nM.

Q: And the IC50 (T98G; Homo sapiens, 48 hours)?
A: The IC50 was 106 nM.

Q: And the “reduction of the titer” value (HSV-1, strain F)?
A: The value was 1.5 logarithms.

Q: What about the “Activity (mm), 100 μg/disc” value (S. aureus) of the same compound?
A: Its value is 20-22 mm.

Q: What about the “Activity (mm), 100 μg/disc” value (T. pulmonis) of the same compound?
A: Its value is 49-52 mm.

Q: What about the “kind of antibiotic activity” value [5] of the same compound?
A: The value was “bactericidal”.

Q: What about the IC50 (SK-UT-1) of the same compound?
A: Its IC50 is 199 nM.

Q: What about the “reduction of the titer” value [6] of the same compound?
A: The value was 1 logarithm.

Q: And the inhibition at 0.2 µM ([7]; 200 nM)?
A: Its inhibition at 0.2 µM is 60%.

Q: And the inhibition at 0.4 µM ([7]; 400 nM)?
A: Its inhibition at 0.4 µM is 92%.

Q: And the “Activity (mm), 100 μg/disc” value (M. abscessus)?
A: Its value is 56 mm.

Q: And the “Activity (mm), 100 μg/disc” value (A. baumannii)?
A: The value was 10-12 mm.

Q: What about the “Activity (mm), 100 μg/disc” value (M. chelonae) of the same compound?
A: Its value is 63 mm.

Q: What about the IC50 (MCF7) of the same compound?
A: Its IC50 is 127 nM.

Q: What about the IC50 (NCI-H1299) of the same compound?
A: Its IC50 is 192 nM.

Q: And the toxicity (MT-2 cells)?
A: The toxicity was “only in the highest concentrations tested (5 and 10 μM)”.

Q: What about the toxicity (PBMCs) of the same compound?
A: The toxicity was “only in the highest concentrations tested (5 and 10 μM)”.

Q: What about the CC50 ([8]; MT-2 cells) of the same compound?
A: Its CC50 is 2500 to 5000 nM.

Q: And the CC50 ([8]; PBMCs)?
A: The CC50 was 2500 to 5000 nM.
